Patent US7628984B2, “Micronutrient formulations for pulmonary and heart health” (Premier Micronutrient Corporation, priority 2005, dated 2009)
Like-named read-outs stand apart in the source and are kept apart here.

Key:
[1] = cited from earlier work
[2] = system: patients with idiopathic dilated cardiomyopathy; conditions: Co-enzyme Q10 33.3 mg thrice/day, 126 patients, 6 y; cited from earlier work
[3] = system: healthy male subjects receiving methionine; conditions: Vit. C 2 g, methionine 100 mg/kg, 6 hours; cited from earlier work
[4] = system: patients undergoing angioplasty; conditions: 317 patients, 4 weeks before and 6 months after angioplasty, vs placebo, cited from earlier work
connexin gene = conditions: mammalian cells in culture; cited from earlier work
[5] = system: intracellular levels of glutathione; conditions: cited from earlier work
[6] = system: diabetes type 2 patients with or without macrovascular complications; conditions: 1200 IU/day, 75 patients, 5 months; cited from earlier work
[7] = system: 39,910 male health professionals; conditions: at least 100 IU per day for at least 2 years vs no vitamin E; cited from earlier work
[8] = system: smokers with hypercholesterolemia; conditions: 544 IU, 42 patients, 4 months; cited from earlier work
heavy smokers = conditions: 800 IU daily, 10 heavy smokers, 3 weeks, cited from earlier work
[9] = system: patients with angiographically proven coronary atherosclerosis; conditions: cited from earlier work
[10] = system: patients with high risk for cardiac events; conditions: Vitamin E 400 IU, 9,541 patients, follow-up 4.5 y, vs control, cited from earlier work
[11] = system: patients having coronary angioplasty; conditions: cited from earlier work
[12] = system: men (high risk patients with prior cardiac events); conditions: 50 mg/day, 1862 men, 6 y, vs placebo, cited from earlier work
chickens = conditions: cited from earlier work
[13] = system: 11,000 people of age 67 or over; conditions: follow up 6 years; cited from earlier work
rabbits = conditions: cited from earlier work
male monkeys = conditions: vs unsupplemented atherosclerotic-promoting diet; cited from earlier work
adenylate cyclase = conditions: cited from earlier work
[14] = Oral ingestion of α-TS, plasma levels; assay type: in vivo; conditions: 800 IU/day, humans
Description: Also, the oxidative DNA damage produced by oxidized vitamin C could be ameliorated by vitamin E. The form and type of vitamin E used are also important in any clinical trial. […] Selenium is a co-factor of glutathione perodidase, and Se-glutathione peroxidase also acts as an antioxidant. Therefore, selenium supplementation together with other antioxidants is also essential.

[15] = oral supplementation, human subjects; cited from earlier work
[16] = system: patients with chronic renal failure; conditions: 800 IU, 33 patients, 12 weeks, cited from earlier work
[17] = 400 or 800 IU per day, median follow-up 510 days

In the case of `COC1=C(OC)C(=O)C(C/C=C(\C)CC/C=C(\C)CC/C=C(\C)CC/C=C(\C)CC/C=C(\C)CC/C=C(\C)CC/C=C(\C)CC/C=C(\C)CC/C=C(\C)CCC=C(C)C)=C(C)C1=O` [Coenzyme Q10], the “doses with no known toxicity in humans” value ([1]; in vivo) is listed as “up to 300 mg/d” and the Cardiac muscle function [2] is listed as “useful in improving”.

For `O=C1O[C@H]([C@@H](O)CO)C(O)=C1O` [Vit. C, ascorbic acid], the “Plasma homocysteine, arterial stiffness” value [3] is listed as “reduced”.

In the case of `CC(C)(Sc1cc(C(C)(C)C)c(O)c(C(C)(C)C)c1)Sc1cc(C(C)(C)C)c(O)c(C(C)(C)C)c1` [Probucol], the Restenosis [4] is listed as “probucol reduced” and the Restenosis ([4]; listed as probucol) is listed as “effective in reducing”.

In the case of `CC1=C(/C=C/C(C)=C/C=C/C(C)=C/C=C/C=C(C)/C=C/C=C(C)/C=C/C2=C(C)CCCC2(C)C)C(C)(C)CCC1` [BC, β-carotene], the “expression of the connexin gene” value (connexin gene) is listed as “enhances” and the “doses that can cause yellowing of skin and pigment deposits in the eye” value ([1]; reversible upon discontinuation) is listed as no less than 100 mg/day.

In the case of `CC(=O)N[C@@H](CS)C(=O)O` [N-acetylcysteine], the “doses that can cause trace metal deficiencies” value ([1]; in vivo) is given as no less than 1000 mg/day and the “intracellular levels of glutathione” value [5] is given as “increase”.

For Vitamin E, the “C-reactive protein (and monocyte interleukin-6)” value [6] is listed as “reduced”, the “lower risk of CAD” value [7] is listed as 37% and the “FMD (endothelial-dependent flow-mediated dilation)” value [8] is listed as “improved”. The “Oxidative stress (levels of oxidative stress markers)” value (heavy smokers) was “increases”, the “Oxidative stress (levels of oxidative stress markers)” value (heavy smokers; listed as vitamin E) was “increased” and the “increase in cardiovascular death” value [9, 17] was 18%. The “lower risk of non-fatal myocardial infarction than the placebo group” value [9, 17] was 77%, the “Death, stroke, non-fatal MI” value [10] was “no effect” and the “Death, stroke, non-fatal MI” value ([10]; listed as vitamin E) was “did not reduce”. For the same compound, the “restenosis, % of patients” value ([11]; 1200 IU daily for 4 months, placebo 50%) was 34.6%, the Stenosis ([11]; 1200 IU, 100 patients, 4 months) was “reduced” and the “Death, CAD events” value [12] was “no effect”. The “Death, CAD events” value ([12]; listed as vitamin E) was “no significant difference”, the “doses used for short-term clinical studies without adverse effects” value ([1]; in vivo) was “up to 2,000 IU/d” and the “development of early aortic atherosclerotic lesions” value (chickens) was “reduce”. The “reduction in mortality from CAD” value [13] was 47%, the “development of early aortic atherosclerotic lesions” value (rabbits) was “reduce” and the stenosis progression (male monkeys) was “decreased”.

For `CC(=O)Oc1c(C)c(C)c2c(c1C)CCC(C)(CCC[C@H](C)CCC[C@H](C)CCCC(C)C)O2` (stereo partly drawn) [Vitamin E(α-TA), alpha tocopheryl acetate], the “FMD (endothelial-dependent flow-mediated dilation)” value [8] is listed as “improved”.

For vitamin A, the “expression of the connexin gene” value (connexin gene) is given as “does not produce such an effect” and the “toxicity after prolonged consumption in adults” value ([1]; daily doses higher than twice the RDA) is given as “liver and skin toxicity”.

For `Cc1c(C)c2c(c(C)c1OC(=O)CCC(=O)O)CC[C@@](C)(CCC[C@H](C)CCC[C@H](C)CCCC(C)C)O2` [α-TS, α-tocopherol-succinate], the “action of PGE2 on adenylate cyclase” value (adenylate cyclase) is given as “reduce” and the “plasma levels of α-tocopherol and α-TS” value [14] is given as “increased”.

For `O=C(O)CCCCC1CCSS1` (stereo not drawn) [α-lipoic acid], the “intracellular levels of glutathione” value [5] is given as “increase”.

For `N[C@@H](CCC(=O)N[C@@H](CS)C(=O)NCC(=O)O)C(=O)O` [glutathione], the “plasma levels of glutathione” value [15] is given as “failed to significantly increase”.

For `Cc1c(C)c2c(c(C)c1O)CC[C@@](C)(CCC[C@H](C)CCC[C@H](C)CCCC(C)C)O2` [Vitamin E (d-αT), d-alpha tocopherol], the “C-reactive protein (and monocyte interleukin-6)” value [6] is listed as “lowered”, the “Death, non-fatal MI” value ([9]; 400 or 800 IU, 2,002 patients, follow-up 510 d) is listed as “reduced” and the LDL oxidation ([16]; listed as Vit. E (d-αT)) is listed as “reduced”. The LDL oxidation ([16]; listed as α-tocopherol) was “decreased”.
